Measured values: patent US5298523A, “Method for treating transplant patients using mycalamide compounds” (priority 1992, dated 1994)

Experiments:
murine CD4^+ T cells = assay: Activation of CD4+ T cells by PMA/mB7; type: cell-based, murine (BALB/c); details: in words
Description: (A) Costimulation of T cells with anti-CD3 mAb and mB7. […] (B) Costimulation of T cells with mB7 and PMA. […] All cultures were incubated for 48 hours and pulsed with 1 μCi [ ^3 H] thymidine/well for the last 6 hours of the incubation period to assay for T cell proliferation.
(A) Costimulation of T cells with anti-CD3 mAb and mB7. 2×10^5 purified BALB/c CD4^+ T lymphocytes were stimulated with the indicated concentrations of anti-CD3 mAb in the presence of medium (.largecircle.), 2×10^4 paraformaldehyde-fixed CHO-mB7 cells (.quadrature.), or 2×10^4 paraformaldehyde-fixed CHO-mB7 cells in the presence of 0.1 nM FK506 (.gradient.), 1 nM FK506 (Δ), or 10 nM FK506 ( ). (B) Costimulation of T cells with mB7 and PMA. 2×10^5 purified BALB/c CD4^+ T lymphocytes were stimulated with the indicated concentrations of PMA and either medium (.largecircle.), 2×10^4 paraformaldehyde-fixed CHO-mB7 cells (.quadrature.), or paraformaldehyde-fixed CHO-mB7 cells in the presence of 0.1 nM FK506 (.gradient.), 1 nM FK506 (Δ), or 10 nM FK506 ( ). All cultures were incubated for 48 hours and pulsed with 1 μCi [^3 H] thymidine/well for the last 6 hours of the incubation period to assay for T cell proliferation.
(A) Costimulation of T cells with anti-CD3 mAb and mB7. […]

[1] = test system: graft vs. host reaction, CB6F1 mice grafted with BALB/c splenocytes; assay: Graft vs. host reaction (Simonsen splenomegaly assay); type: in vivo, mouse; details: for % Suppression / Number of surviving mice at the end of the experiment / Stim. index: Days 1-7
Description: Graft vs. host reaction. In vivo studies with mycalamide A utilized the […]→F1, GVHR model (Simonsen splenomegaly assay). CB6F1 male mice, 4 weeks of age, were injected intraperitoneally with 5×10^7 splenocytes from BALB/c male mice, 8 weeks of age, on day 0 (BALB/c→CB6F1). A syngeneic control group (CB6F1 →CB6F1) was similarly prepared and served as the negative control. For experiment 1, the grafted mice were divided into 5 treatment groups of 5 mice each. Groups were injected intraperitoneally with mycalamide A (dissolved initially in ethanol followed by dilution in sterile phosphate-buffered saline as a vehicle) or vehicle alone on days 1-7. For experiment 2, the grafted mice were divided into 7 treatment groups of 5 mice each and similarly injected intraperitoneally with mycalamide A, an immunosuppressive standard, didemnin B, or vehicle alone on days 1-7. On day 7 all groups were sacrificed, spleens excised, and the mean spleen weight and stimulation index calculated for each group. The stimulation index was calculated as follows: [formula] A spleen index of 1.3 or greater is considered a positive response.
^a CB6F1 mice (5 per group) were grafted with 5 × 10^7
BALB/c splenocytes, intraperitoneally on Day 0. Groups were injected
intraperitoneally with drug or vehicle on Days 1-7. Positive indicates
grafted mice receiving vehicle alone.
^b Number of surviving mice at the end of the experiment.
^c Stimulation index (SI) = (spleen weight of test group/body weight
of test group)/(spleen weight of syngeneic group/body weight of syngeneic
^d Suppression = [(SI of positive control) (SI of test group)]/[(SI
of positive control) (SI of syngeneic group)].
^e Didemnin B immunosuppressive standard.

[2] = Experiment #2, 0.005 mg/kg i.p.

## C=C1CC(OC)(C(O)C(=O)NC2OCOC3C2OC(CC(O)CO)C(C)(C)C3OC)OC(C)C1C (centres unmarked) [Mycalamide A, mycalamide A]
Murine CD4^+ T cells
  effect on PMA/CHO-mB7 stimulation of CD4+ cells: blocks activation
[1]; Experiment #1, 0.01 mg/kg i.p.
  % Suppression: 102%
  Number of surviving mice at the end of the experiment: 5/5
  Stim. index: 0.99
[1]; Experiment #1, 0.05 mg/kg i.p.
  % Suppression: 0%
  Number of surviving mice at the end of the experiment: 0/5
[1]; Experiment #1, 0.1 mg/kg i.p.
  % Suppression: 0%
  Number of surviving mice at the end of the experiment: 0/5
[1]; [2]
  % Suppression: 0%
  Number of surviving mice at the end of the experiment: 5/5
  Stim. index: 1.92
[1]; Experiment #2, 0.01 mg/kg i.p.
  % Suppression: 88%
  Number of surviving mice at the end of the experiment: 5/5
  Stim. index: 1.06
[1]; Experiment #2, 0.05 mg/kg i.p.
  % Suppression: 0%
  Number of surviving mice at the end of the experiment: 0/5
[1]; Experiment #2, 0.1 mg/kg i.p.
  % Suppression: 0%
  Number of surviving mice at the end of the experiment: 0/5
[1]; dosages higher than 0.01 mg/kg i.p., in words
  toxicity in mice: toxic
[1]; dosages lower than 0.01 mg/kg i.p., in words
  immunosuppression in GVHR: not immunosuppressive
